We go through 1 molecule from article PMC11768629, “Potential Interaction of Pinocembrin with Drug Transporters and Hepatic Drug-Metabolizing Enzymes” (Pharmaceuticals, 2025).

Each structure is given as a SMILES string.

In data set [1] the target is T1, hOCT1 (Homo sapiens, UniProt O15245).
T1 construct: host or cells: CHO-K1
As to the kind of experiment: Cis-inhibition assay, 3H-MPP+ uptake in hOCT1-CHO-K1 cells. It is filed as cell-based. The settings on record: pinocembrin. Here is the method:
Next, the effects of pinocembrin on the transport function of renal drug transporters, including hOAT1, hOAT3, hOCT1, hOCT2, hMATE1, and hMATE2, were determined.
(§1) A cell monolayer comprising hOAT1-MDCK, hOAT3-MDCK, hOCT1-CHO-K1, hOCT2-CHO-K1, hMATE1-CHO-K1, hMATE2-CHO-K1, and mock cells were utilized for the uptake experiments. The cells were washed three times with a buffer containing (in mM) 140 NaCl, 5 KCl, 0.4 MgSO4, 0.5 MgCl2, 1 CaCl2, 0.3 Na2HPO4, 0.4 KH2PO4, 6 D-glucose, and 4 NaHCO3 at pH 7.4 and incubated at 37 °C for 15 min. After incubation, the hOAT1-MDCK and hOAT3-MDCK cells were incubated for 10 min with ^3H-PAH and ^3H-estrone sulfate, a substrate of hOAT1 and hOAT3, respectively. The hOCT1-CHO-K1 and hOCT2-CHO-K1 cells were incubated with ^3H-MPP^+, a substrate of OCT1 and OCT2, for five minutes. The functions of MATE1 and MATE2 were determined by incubating the hMATE1-CHO-K1 and hMATE2-CHO-K1 cells with a buffer containing ^3H-MPP^+, a substrate of MATE1 and MATE2, at pH 8.5 for five minutes. The cells were washed three times with an ice-cold buffer to stop the transport function. The cells were lyzed with 0.4 N NaOH for at least four hours. The samples were collected and transferred to vials containing a liquid scintillation cocktail to measure radioactivity by a β-counter (Packard BioScience, Wellesley, MA, USA). […]

Data set [2] addresses T2, hOAT1 (Homo sapiens, UniProt Q4U2R8).
T2 construct: host or cells: MDCK
T2 sequence (Q4U2R8 1-563): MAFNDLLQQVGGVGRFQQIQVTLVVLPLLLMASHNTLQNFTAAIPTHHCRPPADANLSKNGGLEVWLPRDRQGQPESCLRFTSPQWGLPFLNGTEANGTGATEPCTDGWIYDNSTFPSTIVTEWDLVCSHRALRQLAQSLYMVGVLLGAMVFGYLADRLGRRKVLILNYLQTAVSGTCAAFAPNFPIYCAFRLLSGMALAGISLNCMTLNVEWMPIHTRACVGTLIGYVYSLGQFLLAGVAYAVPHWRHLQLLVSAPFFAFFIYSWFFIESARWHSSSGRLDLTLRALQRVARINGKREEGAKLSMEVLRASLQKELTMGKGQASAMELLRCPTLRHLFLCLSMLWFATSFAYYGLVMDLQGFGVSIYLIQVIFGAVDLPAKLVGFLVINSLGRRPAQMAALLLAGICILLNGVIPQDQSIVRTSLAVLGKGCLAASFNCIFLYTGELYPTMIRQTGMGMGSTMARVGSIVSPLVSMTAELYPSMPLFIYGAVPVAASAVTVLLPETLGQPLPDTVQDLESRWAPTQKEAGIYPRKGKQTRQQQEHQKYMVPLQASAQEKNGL
In words: hOAT1-mediated 6-CF uptake in hOAT1-MDCK cells (inhibitory potency and kinetics). It is filed as cell-based. As to the method: To determine the inhibitory potency of pinocembrin on the hOAT1 and hOAT3 function, the IC50 of pinocembrin on the hOAT1- and hOAT3-mediated uptake of 6-carboxyfluorescein (6-CF), a fluorescent substrate of hOAT1 and hOAT3, was determined. […] Next, the inhibitory mechanism of pinocembrin was determined using a kinetic study.
The hOAT1-MDCK and hOAT3-MDCK cell monolayers were incubated at 37 °C with an uptake buffer containing 6-CF (10 µM), a fluorescent substrate of hOAT1 and hOAT3 [12], and pinocembrin (0–50 µM) for 10 min. Uptake was terminated by removing the uptake solution and washing four times with a cold buffer. The cell monolayers were lysed with 0.4 N NaOH for 30 min. The samples were transferred to 96-black well plates to measure the fluorescence intensity using a fluorescent plate reader (EnVision XCite 2105 Multimode Plate Reader, Packard BioScience, Wellesley, MA, USA) at excitation and emission wavelengths of 490 and 510, respectively. The IC50 of pinocembrin on hOAT1- and hOAT3-mediated 6-CF uptake was calculated in GraphPad Prism using sigmoidal concentration–response analysis using the equation Y = 100/(IC50/X)^HillSlope (X is the concentration, while Y is the normalized response). In addition, the estimated inhibitory constant (Ki) was calculated using the Cheng–Prusoff equation.
The hOAT1-MDCK and hOAT3-MDCK cell monolayers were incubated with 6-CF at increasing concentrations (0 to 100 µM) and in the absence or presence of 5 µM pinocembrin for 10 min. The kinetic parameters of 6-CF transport by hOAT1 and hOAT3 in the presence of pinocembrin were determined using nonlinear regression analysis to fit the Michaelis–Menten kinetic equation: V=Vmax[S]/Km+[S] where V is the rate of 6-CF transport, Vmax is the maximum rate of 6-CF transport, Km is the 6-CF concentration that results in half the maximum transport (Michaelis–Menten constant), and [S] is the concentration of 6-CF in the transport reaction.

Data set [3] addresses T2, hOAT1. As to the kind of experiment: Pinocembrin treatment followed by 3H-PAH accumulation in hOAT1-MDCK cells. In kind it is cell-based. The following applies: 1, 10 and 50 μM for 24 h, concentration-dependent, compared with vehicle. As to the method: (§2) The hOAT1-MDCK cells and hOAT3-MDCK cells were treated with 1, 10, and 50 μM pinocembrin for 24 h, followed by a measurement of ^3H-PAH and ^3H-estrone sulfate cellular accumulation. […] The inhibitory effect of pinocembrin occurred in a concentration-dependent manner.
as §1, with “The cells were lyzed with 0.4 N NaOH for at least four hours.” left out

Data set [4] deals with CYP2C8. Details: method as in PMID 34069400, doi:10.5562/cca3652, PMID 35721953. The settings on record: cited from earlier work.
Data set [5] deals with hOAT3-MDCK cells. In words: Cell viability assay (MTT) in hOAT3-MDCK cells. The settings on record: pinocembrin 1, 10 and 50 μM, compared to vehicle-treated cells. It is filed as cell-based, canine. As to the method:
as §2
We determined whether the inhibitory effect of pinocembrin on hOAT1 and hOAT3. We studied whether pinocembrin could reduce the renal toxicity of tenofovir, a substrate of hOAT1 and hOAT3 known for inducing renal tubular dysfunction.
The confluent cells in 96-well plates were treated with pinocembrin for 48 h at 37 °C. After that, the cells were incubated with 0.5 mg/mL MTT solution for four hours. The MTT solution was removed, and DMSO (100 µL) was added to dissolve the crystal formazan. The formazan content was detected at a wavelength of 570 nm using a microplate reader. Cell viability was reported as a percentage of the vehicle-treated cells.

Data set [6] concerns P-gp. The following applies: cited from earlier work.

T1 sequence (O15245 whole entry): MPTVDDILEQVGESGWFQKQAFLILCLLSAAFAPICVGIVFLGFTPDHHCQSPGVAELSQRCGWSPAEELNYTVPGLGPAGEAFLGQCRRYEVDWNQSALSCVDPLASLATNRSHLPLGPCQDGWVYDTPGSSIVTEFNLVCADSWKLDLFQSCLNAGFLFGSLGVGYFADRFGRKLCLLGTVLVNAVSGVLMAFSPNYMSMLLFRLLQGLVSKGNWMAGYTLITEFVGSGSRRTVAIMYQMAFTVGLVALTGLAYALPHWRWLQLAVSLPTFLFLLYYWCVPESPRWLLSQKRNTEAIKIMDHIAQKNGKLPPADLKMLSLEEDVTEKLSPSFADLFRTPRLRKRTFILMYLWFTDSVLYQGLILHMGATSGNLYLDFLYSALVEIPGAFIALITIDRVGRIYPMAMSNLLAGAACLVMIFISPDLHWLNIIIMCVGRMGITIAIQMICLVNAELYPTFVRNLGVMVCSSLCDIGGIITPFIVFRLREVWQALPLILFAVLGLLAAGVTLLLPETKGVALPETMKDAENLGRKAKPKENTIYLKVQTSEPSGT

As to `O=C1C[C@@H](c2ccccc2)Oc2cc(O)cc(O)c21` [pinocembrin], the “hOCT1-mediated uptake of 3H-MPP+” value in data set [1] is on record as “did not alter”. The “Vmax of hOAT1-mediated 6-CF uptake, With Pinocembrin” value in data set [2] (5 μM pinocembrin, 6-CF up to 100 μM, hOAT1-MDCK cells) amounted to 6.03 ± 1.02 nmol/min/cm^2. For the same molecule, half-maximal inhibition in data set [2] (hOAT1-MDCK cells, 6-CF 10 µM, mean ± S.D., three experiments) (IC50) required 1470 ± 870 nM. In addition, the inhibition constant (Ki) (as a rule, a dissociation constant, usually derived from enzyme kinetics or from competition with a known ligand) in data set [2] (hOAT1-MDCK cells, estimated with the Cheng–Prusoff equation) is 810 ± 120 nM. Also, the “inhibitory mechanism on hOAT1 transport function” value in data set [2] (kinetic study, 5 μM pinocembrin: Km increased, Vmax unchanged) is on record as “competitively”. Besides, in data set [3], the “3H-PAH accumulation after pinocembrin treatment” value is “significantly decreased”. Also, in data set [4], the “effect on the activity of CYP2C8” value is listed as “does not affect”. Also, the cell viability result in data set [5] is recorded as “did not affect cell viability”. Moreover, in data set [6], the “effect on the P-gp in the blood–brain barrier (BBB)” value is recorded as “little effect” and the “effect on the function of P-gp” value is on record as “did not inhibit”.
